# From patent US20260234180A1, “AMINO ACID DERIVATIVE, PREPARATION METHOD THEREFOR, AND PHARMACEUTICAL COMPOSITION FOR TREATING HEPATITIS, COMPRISING SAME” (priority 2021, published 2026)
# Target: T1, NTCP (Na+ taurocholate cotransporting peptide), HepG2-hNTCP-C4 cell line (Homo sapiens, UniProt Q14973)
# T1 construct: expressed in transfected cells; host or cells: HepG2-hNTCP-C4 (HepG2 cells expressing human NTCP)
# T1 sequence (Q14973 1-349): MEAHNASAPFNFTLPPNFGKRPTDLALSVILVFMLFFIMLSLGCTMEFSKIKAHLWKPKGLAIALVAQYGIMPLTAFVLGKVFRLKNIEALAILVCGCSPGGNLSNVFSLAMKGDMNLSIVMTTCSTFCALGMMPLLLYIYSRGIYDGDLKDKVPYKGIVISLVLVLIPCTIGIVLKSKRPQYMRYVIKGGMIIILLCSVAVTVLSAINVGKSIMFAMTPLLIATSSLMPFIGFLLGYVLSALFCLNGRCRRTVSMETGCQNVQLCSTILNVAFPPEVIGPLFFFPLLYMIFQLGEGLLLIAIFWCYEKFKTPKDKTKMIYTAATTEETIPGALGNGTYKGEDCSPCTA
# Test: Inhibition of binding between FITC-labelled PreS1 and NTCP expressing cell line, flow cytometry
# Settings: 0.2 μM, 2 μM, 10 μM, 50 μM; 20 nM PreS1
# Description: HepG2-hNTCP-C4 cell line, a cell line expressing NTCP, was seeded in a 6 well plate at a density of 2×10^5/well and incubated at 4° C. for 30 minutes when the confluency reached 80% after overnight incubation for 2 days. Thereafter, 20 nM PreS1 (Myr-GTNL […]-Lys(FITC) (SEQ ID NO: 1)) and the compounds in Example 1, Examples 38 to 56 or the compound in Comparative Example 1 were treated by diluting in culture media at 4° C. at a concentration of 50 µM respectively, and the media was suctioned after 2 hours, followed by washing 3 times with 4° C. PBS. In order to take the cells off from the plate, 500 μl of 0.5 mM EDTA PBS solution was treated, and then incubation was performed at 37° C. for 15 minutes to check whether the cells fell off through an optical microscope. After taking off the cells by pipetting, the cells were collected in a 1.5 ml tube and centrifuged (4000 rpm, 4° C., 3 min). After suctioning the supernatant, the pellet was washed 3 times with 4° C. PBS, and then green fluorescence was measured via flow cytometry. In this case, taurocholic acid (TCA), a compound known as a substrate of NTCP to reduce the entry of HBV or HDV, was used as a positive control group.
# In the graph at the top of FIG. 1, black (1) and red (2) indicate a negative control group with no treatment and an HBV-induced group (HBV preS1) solely treated with PreS1, respectively. Blue (HBV preS1+HBV entry inhibitor) (3) is the fluorescence value for each of Examples or Comparative Examples, evaluated that the closer to the negative control group, the more inhibited the binding between PreS1 and the NTCP cell line.
# The experimental method was the same as in the Experimental Example 1-1, and 20 nM PreS1 and each compound were treated at 4 concentrations (0.2 μM, 2 μM, 10 μM, 50 μM).
# With an expectation that there is a structure-activity relationship among compounds composed of bile acid and amino acids, for each of bile acids in Comparative Example 1 (lithocholic acid, LCA), Comparative Example 2 (ursodeoxycholic acid, UDCA), Comparative Example 3 (cholic acid, CA), Comparative Example 4 (hyodeoxycholic acid, HDCA), Comparative Example 5 (deoxycholic acid, DCA), and Comparative Example 6 (chenodeoxycholic acid, CDCA), an evaluation experiment was conducted on an ability to inhibit the binding between PreS1 and NTCP expressing cell lines, and also for Examples 1 (LCA-Ile) and Example 44 (LCA-Val) as well as the compounds in Example 2 (UDCA-Ile), Example 3 (UDCA-Val), Example 6 (CA-Ile), Example 7 (CA-Val), Example 8 (HDCA-Ile), Example 9 (HDCA-Val), Example 10 (DCA-Ile), Example 11 (DCA-Val), Example 14 (CDCA-Ile), and Example 15 (CDCA-Val) in which bile acid parts (lithocholic acid) of Example 1 (LCA-Ile) and Example 44 (LCA-Val) were substituted with other types of bile acids in Comparative Examples 2 to 6, an evaluation experiment was conducted on an ability to inhibit the binding between PreS1 and NTCP expressing cell lines. The experimental method was the same as in the Experimental Example 1-1, and 18 compounds in the Comparative Examples 1 to 6, Examples 1 to 3, Examples 6 to 11, Examples 14 to 15, and Example 44 were treated at a concentration of 50 µM along with 20 nM PreS1.
# In FIG. 9, an evaluation experiment was conducted to check a degree of inhibiting the binding between PreS1 and NTCP expressing cell lines for compounds in Examples 4 to 5, Examples 12 to 13, Examples 16 to 17, and Comparative Examples 2 (ursodeoxycholic acid, UDCA), Comparative Examples 5 (deoxycholic acid, DCA), and Comparative Examples 6 (chenodeoxycholic acid, CDCA) according to the present disclosure. The experimental method was the same as the Experimental Example 1-1.
# In the Experimental Examples 1-4, it was determined whether there is additionally concentration dependence for Example 4 (UDCA-Trp), a compound with good inhibitory ability. […]
row,SMILES,effect of inhibiting the binding between PreS1 and NTCP expressing cell lines by treatment concentration
1,"C[C@H](CCC(=O)N[C@@H](Cc1c[nH]c2ccccc12)C(=O)O)[C@H]1CC[C@H]2[C@@H]3CC[C@@H]4C[C@H](O)CC[C@]4(C)[C@H]3CC[C@]12C [Example 50, (S)-2-((R)-4-((3R,5R,8R,9S,10S,13R,14S,17R)-3-hydroxy-10,13-dimethyl-hexadecahydro-1H-cyclopenta[a]phenanthren-17-yl)pentanamido)-3-(1H-indol-3-yl)propanoic acid]",concentration dependent

# Same assay, conditions: compared to the HBV-induced group (PreS1-FITC) solely treated with PreS1; vs Comparative Example 5 or 6
row,SMILES,difference in degree of competitive inhibition versus the parent bile acid Comparative Example [%]
1,"C[C@H](CCC(=O)N[C@@H](Cc1c[nH]c2ccccc12)C(=O)O)[C@H]1CC[C@H]2[C@@H]3[C@H](O)C[C@@H]4C[C@H](O)CC[C@]4(C)[C@H]3CC[C@]12C [Example 16, (S)-2-((R)-4-((3R,5S,7R,8R,9S,10S,13R,14S,17R)-3,7-dihydroxy-10,13-dimethyl-hexadecahydro-1H-cyclopenta[a]phenanthren-17-yl)pentanamido)-3-(1H-indol-3-yl)propanoic acid]",17.8

# Same assay, conditions: compound 50 µM, 20 nM PreS1, 4° C., 2 hours; lower = more inhibited binding
row,SMILES,relative fluorescence intensity compared to Comparative Example 1 (LCA)
1,"C[C@H](CCC(=O)N1CCCC1C(=O)O)[C@H]1CC[C@H]2[C@@H]3CC[C@@H]4C[C@H](O)CC[C@]4(C)[C@H]3CC[C@]12C (stereo partly drawn) [Example 38, 1-((R)-4-((3R,5R,8R,9S,10S,13R,14S,17R)-3-hydroxy-10,13-dimethyl-hexadecahydro-1H-cyclopenta[a]phenanthren-17-yl)pentanoyl)pyrrolidine-2-carboxylic acid]",low and lower
2,"C[C@H](O)[C@H](NC(=O)CC[C@@H](C)[C@H]1CC[C@H]2[C@@H]3CC[C@@H]4C[C@H](O)CC[C@]4(C)[C@H]3CC[C@]12C)C(=O)O [Example 39, (2S,3S)-3-hydroxy-2-((R)-4-((3R,5R,8R,9S,10S,13R,14S,17R)-3-hydroxy-10,13-dimethyl-hexadecahydro-1H-cyclopenta[a]phenanthren-17-yl)pentanamido)butanoic acid]",low and lower
3,"C[C@H](CCC(=O)N[C@@H](CS)C(=O)O)[C@H]1CC[C@H]2[C@@H]3CC[C@@H]4C[C@H](O)CC[C@]4(C)[C@H]3CC[C@]12C [Example 40, (R)-2-((R)-4-((3R,5R,8R,9S,10S,13R,14S,17R)-3-hydroxy-10,13-dimethyl-hexadecahydro-1H-cyclopenta[a]phenanthren-17-yl)pentanamido)-3-mercaptopropanoic acid]",low and lower
4,"C[C@H](CCC(=O)N[C@@H](Cc1cnc[nH]1)C(=O)O)[C@H]1CC[C@H]2[C@@H]3CC[C@@H]4C[C@H](O)CC[C@]4(C)[C@H]3CC[C@]12C [Example 43, (S)-2-((R)-4-((3R,5R,8R,9S,10S,13R,14S,17R)-3-hydroxy-10,13-dimethyl-hexadecahydro-1H-cyclopenta[a]phenanthren-17-yl)pentanamido)-3-(1H-imidazol-5-yl)propanoic acid]",low
5,"C[C@H](NC(=O)CC[C@@H](C)[C@H]1CC[C@H]2[C@@H]3CC[C@@H]4C[C@H](O)CC[C@]4(C)[C@H]3CC[C@]12C)C(=O)O [Example 46, (S)-2-((R)-4-((3R,5R,8R,9S,10S,13R,14S,17R)-3-hydroxy-10,13-dimethyl-hexadecahydro-1H-cyclopenta[a]phenanthren-17-yl)pentanamido)-3-propanoic acid]",low
6,CC(C)C[C@H](NC(=O)CC[C@@H](C)[C@H]1CC[C@H]2[C@@H]3CC[C@@H]4C[C@H](O)CC[C@]4(C)[C@H]3CC[C@]12C)C(=O)O [Example 47],low and lower
7,"CSCC[C@H](NC(=O)CC[C@@H](C)[C@H]1CC[C@H]2[C@@H]3CC[C@@H]4C[C@H](O)CC[C@]4(C)[C@H]3CC[C@]12C)C(=O)O [Example 48, (S)-2-((R)-4-((3R,5R,8R,9S,10S,13R,14S,17R)-3-hydroxy-10,13-dimethyl-hexadecahydro-1H-cyclopenta[a]phenanthren-17-yl)pentanamido)-4-(methylthio)butanoic acid]",low and lower
8,"C[C@H](CCC(=O)N[C@@H](Cc1ccccc1)C(=O)O)[C@H]1CC[C@H]2[C@@H]3CC[C@@H]4C[C@H](O)CC[C@]4(C)[C@H]3CC[C@]12C [Example 49, (S)-2-((R)-4-((3R,5R,8R,9S,10S,13R,14S,17R)-3-hydroxy-10,13-dimethyl-hexadecahydro-1H-cyclopenta[a]phenanthren-17-yl)pentanamido)-3-phenylpropanoic acid]",low
9,"C[C@H](CCC(=O)N[C@@H](Cc1c[nH]c2ccccc12)C(=O)O)[C@H]1CC[C@H]2[C@@H]3CC[C@@H]4C[C@H](O)CC[C@]4(C)[C@H]3CC[C@]12C [Example 50, (S)-2-((R)-4-((3R,5R,8R,9S,10S,13R,14S,17R)-3-hydroxy-10,13-dimethyl-hexadecahydro-1H-cyclopenta[a]phenanthren-17-yl)pentanamido)-3-(1H-indol-3-yl)propanoic acid]",low and lower
10,"C[C@H](CCC(=O)N[C@@H](CCCCN)C(=O)O)[C@H]1CC[C@H]2[C@@H]3CC[C@@H]4C[C@H](O)CC[C@]4(C)[C@H]3CC[C@]12C [Example 56, (S)-6-amino-2-((R)-4-((3R,5R,8R,9S,10S,13R,14S,17R)-3-hydroxy-10,13-dimethyl-hexadecahydro-1H-cyclopenta[a]phenanthren-17-yl)pentanamido)hexanoic acid]",low

# Same assay, conditions: vs Comparative Example 2 (UDCA), 5 (DCA) or 6 (CDCA); method as Experimental Example 1-1
row,SMILES,relative fluorescence intensity in comparison with the parent bile acid Comparative Example
1,"C[C@H](CCC(=O)N[C@@H](Cc1c[nH]c2ccccc12)C(=O)O)[C@H]1CC[C@H]2[C@@H]3[C@H](O)C[C@@H]4C[C@H](O)CC[C@]4(C)[C@H]3CC[C@]12C [Example 16, (S)-2-((R)-4-((3R,5S,7R,8R,9S,10S,13R,14S,17R)-3,7-dihydroxy-10,13-dimethyl-hexadecahydro-1H-cyclopenta[a]phenanthren-17-yl)pentanamido)-3-(1H-indol-3-yl)propanoic acid]",low
2,"C[C@H](CCC(=O)N[C@@H](Cc1ccc(O)cc1)C(=O)O)[C@H]1CC[C@H]2[C@@H]3[C@H](O)C[C@@H]4C[C@H](O)CC[C@]4(C)[C@H]3CC[C@]12C [Example 17, (S)-2-((R)-4-((3R,5S,7R,8R,9S,10S,13R,14S,17R)-3,7-dihydroxy-10,13-dimethyl-hexadecahydro-1H-cyclopenta[a]phenanthren-17-yl)pentanamido)-3-(4-hydroxyphenyl)propanoic acid]",low
